Experimental data published in ChEMBL document CHEMBL1130827, “Molecular lipophilicity potential by CLIP, a reliable tool for the description of the 3D distribution of lipophilicity: application to 3-phenyloxazolidin-2-one, a prototype series of reversible MAOA inhibitors” (Bioorg Med Chem Lett, 1998).

How the values were obtained:
[1] = Partition coefficient (logP); format: physicochemical; settings: octanol/water
[2] = Logarithm of capacity factor was determined; format: ADME
[3] = target: T1, Amine oxidase [flavin-containing] A (Homo sapiens, UniProt P21397); assay: Monoamine oxidase A inhibitory potency; settings: read-out: KiA
T1 sequence (P21397 whole entry): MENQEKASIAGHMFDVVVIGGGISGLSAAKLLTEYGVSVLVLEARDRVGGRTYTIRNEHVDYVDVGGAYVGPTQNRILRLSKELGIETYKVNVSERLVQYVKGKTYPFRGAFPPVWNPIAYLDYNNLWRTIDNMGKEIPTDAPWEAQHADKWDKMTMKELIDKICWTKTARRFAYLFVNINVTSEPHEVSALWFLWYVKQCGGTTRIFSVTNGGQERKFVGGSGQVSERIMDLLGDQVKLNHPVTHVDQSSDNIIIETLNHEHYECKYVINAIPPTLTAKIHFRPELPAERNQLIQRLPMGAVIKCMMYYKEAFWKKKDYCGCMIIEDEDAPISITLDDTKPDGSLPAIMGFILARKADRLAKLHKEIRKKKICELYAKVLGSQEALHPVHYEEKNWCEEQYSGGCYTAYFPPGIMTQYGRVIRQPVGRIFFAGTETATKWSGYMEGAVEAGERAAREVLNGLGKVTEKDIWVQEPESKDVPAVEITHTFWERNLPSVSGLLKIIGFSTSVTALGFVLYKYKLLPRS

Compound	logP [1]	Log kw [2]	Ki [3] [nM]
COC[C@H]1CN(c2ccc(OCCO)cc2)C(=O)O1	0.77	1	390
C=C(C)CCOc1ccc(N2C[C@H](COC)OC2=O)cc1	3.03	3.08	28
COC[C@H]1CN(c2ccc(OCC[C@@H](C)OC)cc2)C(=O)O1	2.7	2.21	170
COC[C@H]1CN(c2ccc(OCCCC(C)O)cc2)C(=O)O1 (stereo partly drawn)	2.27	1.88	13
COC[C@H]1CN(c2ccc(CCCO)cc2)C(=O)O1	1.27	1.3	1.6
COC[C@H]1CN(c2ccc(OCCCCO)cc2)C(=O)O1	1.84	1.58	29
COC[C@H]1CN(c2ccc(OCC(C)O)cc2)C(=O)O1 (stereo partly drawn)	1.17	1.17	220
COC[C@H]1CN(c2ccc(OCC[C@@H](O)C(F)(F)F)cc2)C(=O)O1 [BEFLOXATONE]	2.48	2.45	3.5
COC[C@H]1CN(c2ccc(OCC[C@@H](C)O)cc2)C(=O)O1	1.71	1.6	6.5
COC[C@H]1CN(c2ccc(OCCC(C)=O)cc2)C(=O)O1	1.37	1.43	46
COC[C@H]1CN(c2ccc(CCO)cc2)C(=O)O1	1.13	1	80
